Test results reported in US6924302B2, “Substituted triazole diamine derivatives as kinase inhibitors” (Ortho McNeil Pharmaceutical, Inc., priority 2000, dated 2005).
Like-named read-outs stand apart in the source and are kept apart here.

How the values were obtained:
Type in all cases: biochemical
CDK1:Cyclin-B = target: T1, CDK1:Cyclin-B (Homo sapiens, UniProt P06493); assay: CDK1 Screening Assay; details: read-out: CDK1 IC50
T1 construct: purchased New England Biolabs 6020; host or cells: insect cells
T1 sequence (P06493 whole entry): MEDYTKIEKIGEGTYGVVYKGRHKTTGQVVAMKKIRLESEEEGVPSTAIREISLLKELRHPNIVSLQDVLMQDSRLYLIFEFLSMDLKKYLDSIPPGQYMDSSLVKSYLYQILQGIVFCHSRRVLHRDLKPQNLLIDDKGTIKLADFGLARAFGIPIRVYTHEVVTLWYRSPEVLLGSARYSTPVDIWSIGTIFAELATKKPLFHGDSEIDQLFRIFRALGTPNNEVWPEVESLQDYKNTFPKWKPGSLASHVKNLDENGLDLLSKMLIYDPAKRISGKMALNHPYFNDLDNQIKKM
T1 sequence (P14635 whole entry partner): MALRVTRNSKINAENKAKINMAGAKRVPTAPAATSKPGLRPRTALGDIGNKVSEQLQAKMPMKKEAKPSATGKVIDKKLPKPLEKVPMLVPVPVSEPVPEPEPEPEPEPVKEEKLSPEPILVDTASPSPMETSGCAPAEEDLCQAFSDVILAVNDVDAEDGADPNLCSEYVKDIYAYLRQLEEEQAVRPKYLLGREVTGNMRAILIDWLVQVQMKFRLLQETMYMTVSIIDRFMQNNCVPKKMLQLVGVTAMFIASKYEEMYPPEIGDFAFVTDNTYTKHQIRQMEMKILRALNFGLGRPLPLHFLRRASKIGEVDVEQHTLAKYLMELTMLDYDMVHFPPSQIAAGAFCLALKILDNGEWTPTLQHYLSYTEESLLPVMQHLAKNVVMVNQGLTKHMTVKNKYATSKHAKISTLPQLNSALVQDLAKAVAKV
Outline: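 Human CDK1:cyclin-B (30 ng/well) with biotinylated histone-H1 peptide and ^33P-γ-ATP, 1 h at 30° C, 1% DMSO, on streptavidin FlashPlate; incorporation read by scintillation.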

Insulin Receptor Kinase = Insulin Receptor Kinase (Homo sapiens, UniProt P06213); assay: Kinase Selectivity Assay Insulin Receptor Kinase; details: Kinase Selectivity, Tables 2a-2k; read-out: Insulin R Kinase IC50
Sequence of Insulin Receptor Kinase (P06213 980-1352): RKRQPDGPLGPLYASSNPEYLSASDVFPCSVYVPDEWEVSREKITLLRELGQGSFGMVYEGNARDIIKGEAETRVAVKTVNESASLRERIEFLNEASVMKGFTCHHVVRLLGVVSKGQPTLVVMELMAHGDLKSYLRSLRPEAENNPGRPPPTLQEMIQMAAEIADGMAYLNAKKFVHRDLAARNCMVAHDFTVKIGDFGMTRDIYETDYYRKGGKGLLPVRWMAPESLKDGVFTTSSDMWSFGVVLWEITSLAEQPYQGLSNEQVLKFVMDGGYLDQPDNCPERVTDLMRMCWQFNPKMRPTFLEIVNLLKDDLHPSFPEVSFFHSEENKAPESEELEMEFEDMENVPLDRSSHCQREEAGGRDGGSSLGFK
Outline: (§1)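 Reactions ran one hour at 30° C in 1% DMSO with enzyme diluted in 50 mM Tris-HCl pH 8.0, 0.1% BSA. Scintillation counting read ^33P incorporated into immobilized biotinylated peptide.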

[1] = target: T2, Casein Kinase 2 (alpha and beta subunits) (Homo sapiens, UniProt P68400); assay: Kinase Selectivity Assay Casein Kinase 2; details: Kinase Selectivity, Tables 2a-2k; read-out: Caseine Kinase 2 IC50
T2 construct: purchased New England Biolabs 6010; host or cells: E. coli
T2 sequence (P68400 whole entry): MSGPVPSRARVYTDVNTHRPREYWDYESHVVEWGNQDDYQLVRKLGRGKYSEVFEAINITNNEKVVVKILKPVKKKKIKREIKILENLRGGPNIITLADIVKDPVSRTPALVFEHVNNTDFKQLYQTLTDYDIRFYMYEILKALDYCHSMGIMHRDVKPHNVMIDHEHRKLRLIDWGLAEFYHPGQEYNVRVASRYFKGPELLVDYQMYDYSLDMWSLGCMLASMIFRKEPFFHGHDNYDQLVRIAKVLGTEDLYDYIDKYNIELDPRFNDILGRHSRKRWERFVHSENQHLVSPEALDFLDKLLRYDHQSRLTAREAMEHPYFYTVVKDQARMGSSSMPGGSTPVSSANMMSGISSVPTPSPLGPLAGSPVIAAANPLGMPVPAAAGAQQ
T2 sequence (P67870 whole entry partner): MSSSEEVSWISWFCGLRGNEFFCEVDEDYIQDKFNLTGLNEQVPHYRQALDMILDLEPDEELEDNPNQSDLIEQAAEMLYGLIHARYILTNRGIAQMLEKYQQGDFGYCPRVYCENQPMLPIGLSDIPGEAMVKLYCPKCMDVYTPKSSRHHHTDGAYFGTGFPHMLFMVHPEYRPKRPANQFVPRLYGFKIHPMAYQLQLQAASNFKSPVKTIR
Outline: as §1

[2] = target: T3, Calmodulin Kinase (calmodulin-dependent protein kinase 2) (Rattus norvegicus, UniProt P11275); assay: Kinase Selectivity Assay Calmodulin Kinase; details: Kinase Selectivity, Tables 2a-2k; read-out: Calmodulin Kinase 2 IC50
T3 construct: a truncated version of the alpha subunit of the rat protein; purchased New England Biolabs 6060; host or cells: insect cells
Outline: as §1

[3] = Kinase Selectivity, Tables 2a-2k

SMILES | IC50 (CDK1:Cyclin-B; [3]) | IC50 (CDK1:Cyclin-B; Table 1) | IC50 (Insulin Receptor Kinase) | IC50 [1] | IC50 [2]
Nc1nc(Nc2ccc(S(=O)(=O)Nc3ccccn3)cc2)nn1C(=O)c1c(F)cccc1F [Cpd 118, 4-[[5-amino-1-(2,6-difluorobenzoyl)-1H-1,2,4-triazol-3-yl]amino]-N-(2-pyridinyl)-benzenesulfonamide] | 0.33 µM | 0.33 µM | > 100 µM | > 100 µM | > 100 µM
Cc1cc(C)c(C(=O)n2nc(Nc3ccc(S(=O)(=O)Nc4ccccn4)cc3)nc2N)s1 [Cpd 120] | 0.277 µM | 0.277 µM | > 100 µM | > 100 µM | > 100 µM
Cc1ccc(F)c(C(=O)n2nc(N)nc2Nc2ccc(S(N)(=O)=O)cc2)c1F [Cpd 123, 4-[[3-amino-1-(2,6-difluoro-3-methylbenzoyl)-1H-1,2,4-triazol-5-yl]amino]-benzenesulfonamide] | 2.05 µM | 2.05 µM | > 100 µM | > 100 µM | > 100 µM
